{
  "source": "patent US20220409598A1",
  "about": "“METHOD OF CONTROLLING BLOOD SUGAR LEVEL AND TREATMENT OF DIABETES AND RELATED CONDITIONS” (ILDONG PHARMACEUTICAL CO., LTD., priority 2021, published 2022)",
  "key": {"[1]": {"assay": "OGTT (Oral Glucose Tolerance Test) in SD rats", "assay_type": "in vivo", "settings": "1 mg/kg", "method": "Additionally, the results of the exposure and efficacy of Reference Example 1 compound (at 0.1 mg/kg, 0.3 mg/kg, and 1 mg/kg doses) in SD rats are shown in FIG. 6."}, "[2]": {"target": "BSEP (bile salt export pump) (Homo sapiens, UniProt O95342)", "sequence (O95342 whole entry)": "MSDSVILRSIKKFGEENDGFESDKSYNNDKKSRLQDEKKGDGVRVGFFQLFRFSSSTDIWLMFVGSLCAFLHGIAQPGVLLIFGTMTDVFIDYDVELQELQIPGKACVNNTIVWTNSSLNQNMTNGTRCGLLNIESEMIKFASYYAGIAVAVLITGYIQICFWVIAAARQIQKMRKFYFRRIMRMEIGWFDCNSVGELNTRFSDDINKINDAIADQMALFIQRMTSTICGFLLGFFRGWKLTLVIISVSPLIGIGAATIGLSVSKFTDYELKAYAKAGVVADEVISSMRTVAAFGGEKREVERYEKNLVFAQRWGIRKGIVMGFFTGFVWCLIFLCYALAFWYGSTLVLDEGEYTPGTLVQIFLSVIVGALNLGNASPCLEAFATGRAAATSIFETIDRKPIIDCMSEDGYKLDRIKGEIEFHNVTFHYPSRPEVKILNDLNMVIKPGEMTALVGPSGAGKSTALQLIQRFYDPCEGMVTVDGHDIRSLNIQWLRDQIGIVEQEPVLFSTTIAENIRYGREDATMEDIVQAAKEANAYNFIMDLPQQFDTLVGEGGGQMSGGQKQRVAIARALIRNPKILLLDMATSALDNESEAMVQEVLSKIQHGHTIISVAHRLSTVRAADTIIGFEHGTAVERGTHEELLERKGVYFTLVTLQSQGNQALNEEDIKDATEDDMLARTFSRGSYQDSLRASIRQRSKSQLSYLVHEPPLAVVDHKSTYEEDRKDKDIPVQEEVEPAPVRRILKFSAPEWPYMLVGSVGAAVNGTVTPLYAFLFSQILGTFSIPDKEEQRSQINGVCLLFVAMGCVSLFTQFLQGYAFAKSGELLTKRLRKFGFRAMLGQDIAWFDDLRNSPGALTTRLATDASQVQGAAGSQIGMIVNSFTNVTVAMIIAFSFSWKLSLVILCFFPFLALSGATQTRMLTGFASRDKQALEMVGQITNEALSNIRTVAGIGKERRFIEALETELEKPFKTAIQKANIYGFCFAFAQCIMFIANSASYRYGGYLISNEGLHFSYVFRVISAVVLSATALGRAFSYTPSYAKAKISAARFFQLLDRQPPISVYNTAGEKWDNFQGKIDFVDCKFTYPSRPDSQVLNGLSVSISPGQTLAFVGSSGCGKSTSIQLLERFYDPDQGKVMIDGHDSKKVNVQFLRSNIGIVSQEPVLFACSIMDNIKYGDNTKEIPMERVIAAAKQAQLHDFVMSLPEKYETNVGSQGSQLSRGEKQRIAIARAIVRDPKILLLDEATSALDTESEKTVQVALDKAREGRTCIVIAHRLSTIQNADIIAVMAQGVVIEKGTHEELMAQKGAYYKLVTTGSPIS", "assay": "Human transporter inhibition study, BSEP", "assay_type": "biochemical", "description": "DILI risk may be due to potency of BSEP inhibition in combination with in vivo drug exposure (e.g., Cmax or Css (plasma concentration at steady state)).\n(§1) • (a) Human Transporter Inhibition Study and Safety Margin"}, "[3]": {"assay": "Single ascending dose (SAD) study in healthy human, plasma PK", "assay_type": "in vivo", "settings": "for AUC(0-inf) / AUC(0-t) / Cmax: human, plasma, po; for AUC(0-inf): read-out: AUCinf, geometric mean; for AUC(0-t): read-out: AUClast, geometric mean; for Cmax: read-out: Cmax, geometric mean", "method": "(§2) To determine safety and pK data in human subjects, single ascending dose (SAD) study was conducted. SAD study included 5 cohorts of 8 healthy subjects who were randomized and received a single oral dose of Reference Example 1 compound or placebo (3:1) at 0.5 mg, 1 mg, 2 mg, 5 mg, or 10 mg. Each cohort was initiated after review of the safety and PK data of the previous cohort. 5 mg cohort was divided into two groups, wherein one group was administered with Reference Example 1 compound in fasted state and the other group was administered with Reference Example 1 compound together with food.\nMean plasma concentration of Reference Example 1 compound following single dose of 0.5, 1, 2, 5, and 10 mg are shown in FIG. 4A (linear scale) and FIG. 4B (semi-logarithmic scale).\nFIG. 5A and FIG. 5B show mean plasma concentration of Reference Example 1 compound following single dose of 0.5 mg (fasted), 1 mg (fasted), 2 mg (fasted), 5 mg (fasted), and 5 mg (fed) in linear scale and semi-logarithmic scale, respectively."}, "[4]": {"system": "human hepatocytes", "assay": "Covalent protein binding in human hepatocytes", "assay_type": "in vitro ADME", "method": "The covalent binding (CVB) burden was estimated by determining the CVB of radiolabeled compound to human hepatocytes and factoring in both the daily dose and the fraction of metabolism leading to CVB. […] Reference Example 1 compound's dose over 260 mg a day was predicted to exceed the CVB burden threshold of 1 mg/day."}, "[5]": {"system": "HepaRG cell", "assay": "Mitochondrial function inhibition in HepaRG cell", "assay_type": "cell-based"}, "[6]": {"target": "T1, MRP4 (Homo sapiens, UniProt O15439)", "T1 sequence (O15439 1-1325)": "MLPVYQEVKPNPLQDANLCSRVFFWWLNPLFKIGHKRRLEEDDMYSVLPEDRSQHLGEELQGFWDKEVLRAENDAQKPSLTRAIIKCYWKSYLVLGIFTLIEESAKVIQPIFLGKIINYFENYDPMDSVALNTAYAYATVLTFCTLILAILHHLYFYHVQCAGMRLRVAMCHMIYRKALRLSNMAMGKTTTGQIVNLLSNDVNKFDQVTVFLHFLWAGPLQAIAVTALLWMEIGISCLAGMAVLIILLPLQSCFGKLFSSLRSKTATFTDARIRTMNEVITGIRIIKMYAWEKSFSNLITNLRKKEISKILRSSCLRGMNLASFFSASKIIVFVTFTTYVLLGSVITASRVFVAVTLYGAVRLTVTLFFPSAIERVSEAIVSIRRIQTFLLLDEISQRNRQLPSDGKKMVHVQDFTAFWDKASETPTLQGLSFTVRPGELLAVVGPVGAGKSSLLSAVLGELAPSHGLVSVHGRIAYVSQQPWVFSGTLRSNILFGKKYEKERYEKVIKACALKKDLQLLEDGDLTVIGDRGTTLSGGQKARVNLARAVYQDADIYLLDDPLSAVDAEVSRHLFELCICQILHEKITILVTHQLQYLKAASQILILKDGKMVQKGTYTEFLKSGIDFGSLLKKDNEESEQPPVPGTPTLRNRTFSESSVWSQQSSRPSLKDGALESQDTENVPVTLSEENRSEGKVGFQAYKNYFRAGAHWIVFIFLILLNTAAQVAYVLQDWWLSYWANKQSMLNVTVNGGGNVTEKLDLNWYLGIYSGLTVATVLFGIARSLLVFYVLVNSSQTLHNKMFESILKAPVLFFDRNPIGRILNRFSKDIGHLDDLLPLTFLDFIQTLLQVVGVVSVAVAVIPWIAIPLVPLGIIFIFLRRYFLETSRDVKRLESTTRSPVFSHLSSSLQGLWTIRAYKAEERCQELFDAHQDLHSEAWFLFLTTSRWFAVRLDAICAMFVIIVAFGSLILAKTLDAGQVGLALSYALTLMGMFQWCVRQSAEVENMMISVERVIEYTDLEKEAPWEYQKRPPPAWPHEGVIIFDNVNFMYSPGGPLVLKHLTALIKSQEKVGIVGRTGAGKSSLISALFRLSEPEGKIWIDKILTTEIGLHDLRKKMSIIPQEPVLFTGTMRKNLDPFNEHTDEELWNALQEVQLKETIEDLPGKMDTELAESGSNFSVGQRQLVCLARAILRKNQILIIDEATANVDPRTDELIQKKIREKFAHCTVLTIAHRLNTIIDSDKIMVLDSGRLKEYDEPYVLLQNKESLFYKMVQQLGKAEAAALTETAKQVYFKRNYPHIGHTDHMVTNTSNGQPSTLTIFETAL", "assay": "Human transporter inhibition study, MRP4", "assay_type": "biochemical", "settings": "read-out: MRP4 in vitro inhibition IC50", "description": "as §1"}, "[7]": {"assay": "Single ascending dose (SAD) study in healthy human, safety", "assay_type": "in vivo", "method": "as §2\nAs expected from preclinical PK modelling, none of the single doses exceeded the PK stopping criteria for Cmax and AUClast.\nOf the 12 AEs, 5 were considered to be possibly related to IMP (Investigational Medicinal Product). The 5 AE included headaches (2), lower abdominal pain, diarrhea, and exanthema in the right upper arm, all of which were of mild intensity and recovered quickly.\nOverall, none of the AEs caused medical concern, and no stopping criteria per protocol were met."}, "[8]": {"settings": "0.5 mg, single oral dose 0.5 mg"}, "[9]": {"settings": "5 mg, single oral dose 5 mg fasted"}, "[10]": {"settings": "5 mg, single oral dose 5 mg fed"}},
  "note": "Where two headings read alike, the source gives them in different places.",
  "data": [
    {"smiles": "CC#C[C@@H](CC(=O)O)c1ccc(O[C@@H]2CCc3c(-c4ccc(O[C@@H]5CCOC5)nc4)ccc(F)c32)cc1", "note": "[Reference Example 1, (S)-3-(4-(((R)-7-Fluoro-4-(6-(((R)-tetrahydrofuran-3-yl)oxy)pyridin-3-yl)-2,3-dihydro-1H-inden-1-yl)oxy)phenyl)hex-4-ynoic acid]", "values": [
      {"measurement": "Reduction in glucose AUC in OGTT", "setting": "[1]", "value": "approximately 20.8%"},
      {"measurement": "IC50", "setting": "[2]; in vitro inhibition, read-out: BSEP IC50", "value": 14.3, "unit": "µM"},
      {"measurement": "IC50", "setting": "[2]; read-out: BSEP (bile salt export pump) IC50", "value": 14.3, "unit": "µM"},
      {"measurement": "AUC(0-inf)", "setting": "[3]; [8]", "value": 811, "unit": "ng·h/mL"},
      {"measurement": "AUC(0-t)", "setting": "[3]; [8]", "value": 680, "unit": "ng·h/mL"},
      {"measurement": "Cmax", "setting": "[3]; [8]", "value": 28.4, "unit": "ng/mL"},
      {"measurement": "AUC(0-inf)", "setting": "[3]; 1 mg, single oral dose 1 mg", "value": 1660, "unit": "ng·h/mL"},
      {"measurement": "AUC(0-t)", "setting": "[3]; 1 mg, single oral dose 1 mg", "value": 1370, "unit": "ng·h/mL"},
      {"measurement": "Cmax", "setting": "[3]; 1 mg, single oral dose 1 mg", "value": 55.8, "unit": "ng/mL"},
      {"measurement": "AUC(0-inf)", "setting": "[3]; 2 mg, single oral dose 2 mg", "value": 2980, "unit": "ng·h/mL"},
      {"measurement": "AUC(0-t)", "setting": "[3]; 2 mg, single oral dose 2 mg", "value": 2480, "unit": "ng·h/mL"},
      {"measurement": "Cmax", "setting": "[3]; 2 mg, single oral dose 2 mg", "value": 109, "unit": "ng/mL"},
      {"measurement": "AUC(0-inf)", "setting": "[3]; [9]", "value": 7740, "unit": "ng·h/mL"},
      {"measurement": "AUC(0-t)", "setting": "[3]; [9]", "value": 6520, "unit": "ng·h/mL"},
      {"measurement": "Cmax", "setting": "[3]; [9]", "value": 243, "unit": "ng/mL"},
      {"measurement": "AUC(0-inf)", "setting": "[3]; [10]", "value": 8270, "unit": "ng·h/mL"},
      {"measurement": "AUC(0-t)", "setting": "[3]; [10]", "value": 6930, "unit": "ng·h/mL"},
      {"measurement": "Cmax", "setting": "[3]; [10]", "value": 250, "unit": "ng/mL"},
      {"measurement": "AUC(0-inf)", "setting": "[3]; 10 mg, single oral dose 10 mg", "value": 18600, "unit": "ng·h/mL"},
      {"measurement": "AUC(0-t)", "setting": "[3]; 10 mg, single oral dose 10 mg", "value": 14800, "unit": "ng·h/mL"},
      {"measurement": "Cmax", "setting": "[3]; 10 mg, single oral dose 10 mg", "value": 545, "unit": "ng/mL"},
      {"measurement": "Fed/fasted % ratio for AUClast", "setting": "[3]; single dose 5 mg", "value": 106.28, "unit": "%"},
      {"measurement": "Fed/fasted % ratio for Cmax", "setting": "[3]; single dose 5 mg", "value": 103.19, "unit": "%"},
      {"measurement": "Dose predicted to exceed the CVB burden threshold of 1 mg/day", "setting": "[4]", "value": "over 260 mg a day"},
      {"measurement": "CVB Burden", "setting": "[4]; daily dose 2 mg (human efficacious dose from PK/PD modeling)", "value": 0.01, "unit": "mg/day"},
      {"measurement": "Covalent binding (CVB), +Aminobenzotriazole (CYP inhibitor)", "setting": "[4]; human hepatocytes", "value": 29.5, "unit": "pmol/mg protein"},
      {"measurement": "Covalent binding (CVB), +Borneol (UGT inhibitor)", "setting": "[4]; human hepatocytes", "value": 21.2, "unit": "pmol/mg protein"},
      {"measurement": "Covalent binding (CVB), compound", "setting": "[4]; human hepatocytes, compound alone", "value": 37.6, "unit": "pmol/mg protein"},
      {"measurement": "Inhibitory effect on mitochondrial function (DILI risk)", "setting": "[5]", "value": "lower DILI risk than fasiglifam"},
      {"measurement": "IC50", "setting": "[6]", "value": 4.4, "unit": "µM"},
      {"measurement": "Changes in ECG, vital signs, and lab data", "setting": "[7]; SAD study", "value": "no significant changes"},
      {"measurement": "Adverse events of special interest / serious adverse events", "setting": "[7]; SAD study 0.5-10 mg", "value": "no adverse event of special interest (AESI) or serious adverse event (SAE) was reported"},
      {"measurement": "Number of AEs considered possibly related to IMP", "setting": "[7]; SAD study, all mild intensity", "value": 5},
      {"measurement": "Number of adverse events (AE) reported", "setting": "[7]; SAD study, compound or placebo", "value": 12},
      {"measurement": "Tolerability of single doses", "setting": "[7]; single oral doses 0.5 mg to 10 mg", "value": "safe and well tolerated"}
    ]}
  ]
}
